Experimental data: ChEMBL document CHEMBL1687911, “Design, synthesis, and biological evaluation of novel carbohydrate-based sulfamates as carbonic anhydrase inhibitors” (J Med Chem, 2011)

Biological target: Carbonic anhydrase 9 (Homo sapiens, UniProt Q16790)
Assay: Inhibition of human carbonic anhydrase 9 catalytic domain by CO2 hydration assay

SMILES	Ki
CC(=O)O[C@@H]1O[C@H](COS(N)(=O)=O)[C@@H](OC(C)=O)[C@H](OC(C)=O)[C@H]1OC(C)=O	73 nM
CCC(=O)O[C@@H]1O[C@H](COS(N)(=O)=O)[C@@H](OC(=O)CC)[C@H](OC(=O)CC)[C@H]1OC(=O)CC	77 nM
CC(=O)O[C@@H]1O[C@H](COS(N)(=O)=O)[C@H](OC(C)=O)[C@H](OC(C)=O)[C@H]1OC(C)=O	75 nM
CC(=O)O[C@@H]1O[C@H](COS(N)(=O)=O)[C@@H](OC(C)=O)[C@H](OC(C)=O)[C@@H]1OC(C)=O	7.8 nM
CC(=O)OC[C@H]1O[C@@H](OC(C)=O)[C@H](OC(C)=O)[C@@H](OC(C)=O)[C@@H]1O[C@H]1O[C@H](COS(N)(=O)=O)[C@@H](OC(C)=O)[C@H](OC(C)=O)[C@H]1OC(C)=O	631 nM
CO[C@H]1O[C@H](COS(N)(=O)=O)[C@@H](OC(C)=O)[C@H](OC(C)=O)[C@H]1OC(C)=O	8.4 nM
NS(=O)(=O)OC[C@H]1OC(O)[C@H](O)[C@@H](O)[C@@H]1O (some centres not stated)	8.6 nM
NS(=O)(=O)OC[C@H]1OC(O)[C@H](O)[C@@H](O)[C@H]1O (some centres not stated)	62 nM
NS(=O)(=O)OC[C@H]1OC(O)[C@@H](O)[C@@H](O)[C@@H]1O (some centres not stated)	53 nM
NS(=O)(=O)OC[C@H]1O[C@H](O[C@H]2[C@H](O)[C@@H](O)[C@H](O)O[C@@H]2CO)[C@H](O)[C@@H](O)[C@@H]1O	497 nM
CO[C@H]1O[C@H](COS(N)(=O)=O)[C@@H](O)[C@H](O)[C@H]1O	9 nM
CC(=O)OC[C@H]1O[C@@H](S(N)(=O)=O)[C@H](OC(C)=O)[C@@H](OC(C)=O)[C@H]1OC(C)=O	4150 nM
